Measured values as given in patent US11040031B2, “Pyrazole derivatives as MALT1 inhibitors” (Janssen Pharmaceutica NV, priority 2018, dated 2021).
pIC50: −log10 of the molar value.

The molecules below were run against T1, full-length MALT1 protein (Strep-MALT1(1-824)-His) (Homo sapiens, UniProt Q9UDY8) (assay: biochemical).
T1 sequence (Q9UDY8 1-824): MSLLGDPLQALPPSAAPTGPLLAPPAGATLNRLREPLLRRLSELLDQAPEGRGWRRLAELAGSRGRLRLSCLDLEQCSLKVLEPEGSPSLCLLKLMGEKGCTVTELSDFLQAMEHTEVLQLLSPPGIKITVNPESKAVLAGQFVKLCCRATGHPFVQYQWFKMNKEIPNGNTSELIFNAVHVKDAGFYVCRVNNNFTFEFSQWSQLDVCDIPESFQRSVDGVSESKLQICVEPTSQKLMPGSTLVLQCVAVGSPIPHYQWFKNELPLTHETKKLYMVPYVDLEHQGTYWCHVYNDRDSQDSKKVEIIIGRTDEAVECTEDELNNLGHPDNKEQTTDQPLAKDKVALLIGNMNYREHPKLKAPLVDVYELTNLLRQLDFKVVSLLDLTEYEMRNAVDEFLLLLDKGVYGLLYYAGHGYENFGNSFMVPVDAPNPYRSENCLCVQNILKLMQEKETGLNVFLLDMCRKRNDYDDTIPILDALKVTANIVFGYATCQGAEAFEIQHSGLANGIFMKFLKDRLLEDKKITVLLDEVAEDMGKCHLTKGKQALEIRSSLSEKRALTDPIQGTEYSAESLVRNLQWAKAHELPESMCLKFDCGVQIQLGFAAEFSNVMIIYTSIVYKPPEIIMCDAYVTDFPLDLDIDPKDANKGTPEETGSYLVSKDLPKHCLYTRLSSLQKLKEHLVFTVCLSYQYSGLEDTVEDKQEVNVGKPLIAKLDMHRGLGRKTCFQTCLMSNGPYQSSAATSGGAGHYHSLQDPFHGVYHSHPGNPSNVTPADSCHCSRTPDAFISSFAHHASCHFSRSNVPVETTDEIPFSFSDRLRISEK
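Note: fluorogenic LRSR-AMC substrate cleavage by MALT1, 50 min compound preincubation then 4 h reaction at RT, 11-point dilution from 30 µM, scaled between enzyme-free and untreated enzyme controls.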

Point of comparison: Cc1cncc(-n2ncc(C(=O)Nc3cnc(-n4nccn4)c(Cl)c3)c2C(F)(F)F)c1 [Cpd 16, N-(5-Chloro-6-(2H-1,2,3-triazol-2-yl)pyridin-3-yl)-1-(5-methylpyridin-3-yl)-5-(trifluoromethyl)-1H-pyrazole-4-carboxamide], pIC50 5.77. Against it:
- O=C(Nc1cnc(-n2nccn2)c(Cl)c1)c1cnn(-c2ccccn2)c1C(F)(F)F [Cpd 8, N-(5-Chloro-6-(2H-1,2,3-triazol-2-yl)pyridin-3-yl)-1-(pyridin-2-yl)-5-(trifluoromethyl)-1H-pyrazole-4-carboxamide] — within 0.2 log units, 5.91
- N#Cc1cc(NC(=O)c2cnn(-c3ncc(Br)cc3Cl)c2C(F)(F)F)cnc1-n1nccn1 [Cpd 30, 1-(5-bromo-3-chloropyridin-2-yl)-N-(5-cyano-6-(2H-1,2,3-triazol-2-yl)pyridin-3-yl)-5-(trifluoromethyl)-1H-pyrazole-4-carboxamide] — 0.38 log units higher, 6.15
- CS(=O)(=O)c1cccc(-n2ncc(C(=O)Nc3cnc(-n4nccn4)c(Cl)c3)c2C(F)(F)F)c1 [Cpd 74, N-(5-chloro-6-(2H-1,2,3-triazol-2-yl)pyridin-3-yl)-1-(3-(methylsulfonyl)phenyl)-5-(trifluoromethyl)-1H-pyrazole-4-carboxamide] — 0.23 log units lower, 5.54
- Cc1c[n+]([O-])ccc1-n1ncc(C(=O)Nc2cnc(-n3nccn3)c(Cl)c2)c1C(F)(F)F [Cpd 153, 4-(4-((5-chloro-6-(2H-1,2,3-triazol-2-yl)pyridin-3-yl)carbamoyl)-5-(trifluoromethyl)-1H-pyrazol-1-yl)-3-methylpyridine 1-oxide] — 0.46 log units lower, 5.31
- N#Cc1cc(NC(=O)c2cnn(-c3ccc(F)c(N4CC(O)C4)n3)c2C(F)(F)F)cnc1-n1nccn1 [Cpd 152, N-(5-cyano-6-(2H-1,2,3-triazol-2-yl)pyridin-3-yl)-1-(5-fluoro-6-(3-hydroxyazetidin-1-yl)pyridin-2-yl)-5-(trifluoromethyl)-1H-pyrazole-4-carboxamide] — 0.31 log units higher, 6.08
- COc1ccnc(-n2ncc(C(=O)Nc3cnc(-n4nccn4)c(Cl)c3)c2C(F)(F)F)c1Cl [Cpd 65, 1-(3-chloro-4-methoxypyridin-2-yl)-N-(5-chloro-6-(2H-1,2,3-triazol-2-yl)pyridin-3-yl)-5-(trifluoromethyl)-1H-pyrazole-4-carboxamide] — 0.53 log units lower, 5.24
- Cc1ccnnc1-n1ncc(C(=O)Nc2cnc(-n3nccn3)c(Cl)c2)c1C(F)(F)F [Cpd 159, N-(5-chloro-6-(2H-1,2,3-triazol-2-yl)pyridin-3-yl)-1-(4-methylpyridazin-3-yl)-5-(trifluoromethyl)-1H-pyrazole-4-carboxamide] — 0.27 log units lower, 5.50
- Cc1cnc([C@@H]2CCCO2)cc1-n1ncc(C(=O)Nc2cnc(-n3nccn3)c(Cl)c2)c1C(F)(F)F (single isomer, unassigned) [Cpd 204, (*S)—N-(5-chloro-6-(2H-1,2,3-triazol-2-yl)pyridin-3-yl)-1-(5-methyl-2-(tetrahydrofuran-2-yl)pyridin-4-yl)-5-(trifluoromethyl)-1H-pyrazole-4-carboxamide] — 0.51 log units higher, 6.28
- COc1ccc(-n2ncc(C(=O)Nc3cnc(-n4nccn4)c(Cl)c3)c2C(F)(F)F)cn1 [Cpd 13, N-(5-Chloro-6-(2H-1,2,3-triazol-2-yl)pyridin-3-yl)-1-(6-methoxypyridin-3-yl)-5-(trifluoromethyl)-1H-pyrazole-4-carboxamide] — the same, 5.77
- CS(=O)(=O)c1ccccc1-n1ncc(C(=O)Nc2cnc(-n3nccn3)c(Cl)c2)c1C(F)(F)F [Cpd 138, N-(5-chloro-6-(2H-1,2,3-triazol-2-yl)pyridin-3-yl)-1-(2-(methylsulfonyl)phenyl)-5-(trifluoromethyl)-1H-pyrazole-4-carboxamide] — 0.51 log units lower, 5.26
- Cc1cc(S(C)(=O)=O)ccc1-n1ncc(C(=O)Nc2cnc(-n3nccn3)c(Cl)c2)c1C(F)(F)F [Cpd 75, N-(5-chloro-6-(2H-1,2,3-triazol-2-yl)pyridin-3-yl)-1-(2-methyl-4-(methylsulfonyl)phenyl)-5-(trifluoromethyl)-1H-pyrazole-4-carboxamide] — 0.20 log units higher, 5.97
- N#Cc1cc(NC(=O)c2cnn(-c3cc(F)ccc3Cl)c2C(F)(F)F)cnc1-n1nccn1 [Cpd 80, 1-(2-chloro-5-fluorophenyl)-N-(5-cyano-6-(2H-1,2,3-triazol-2-yl)pyridin-3-yl)-5-(trifluoromethyl)-1H-pyrazole-4-carboxamide] — 0.91 log units higher, 6.68
- N#Cc1cc(NC(=O)c2cnn(-c3ccc(F)cc3C(F)(F)F)c2C(F)(F)F)cnc1-n1nccn1 [Cpd 115, N-(5-cyano-6-(2H-1,2,3-triazol-2-yl)pyridin-3-yl)-1-(4-fluoro-2-(trifluoromethyl)phenyl)-5-(trifluoromethyl)-1H-pyrazole-4-carboxamide] — 0.67 log units higher, 6.44
- Nc1ccc(C(F)(F)F)c(-n2ncc(C(=O)Nc3cnc(-n4nccn4)c(Cl)c3)c2C(F)(F)F)n1 [Cpd 192, 1-(6-amino-3-(trifluoromethyl)pyridin-2-yl)-N-(5-chloro-6-(2H-1,2,3-triazol-2-yl)pyridin-3-yl)-5-(trifluoromethyl)-1H-pyrazole-4-carboxamide] — within 0.2 log units, 5.95
- Cc1nccc(-n2ncc(C(=O)Nc3cnc(-n4nccn4)c(C#N)c3)c2C(F)(F)F)c1C [Cpd 42, N-(5-cyano-6-(2H-1,2,3-triazol-2-yl)pyridin-3-yl)-1-(2,3-dimethylpyridin-4-yl)-5-(trifluoromethyl)-1H-pyrazole-4-carboxamide] — 0.97 log units higher, 6.74
- O=C(Nc1cnc(-n2nccn2)c(Cl)c1)c1cnn(-c2cccnc2)c1C(F)(F)F [Cpd 12, N-(5-Chloro-6-(2H-1,2,3-triazol-2-yl)pyridin-3-yl)-1-(pyridin-3-yl)-5-(trifluoromethyl)-1H-pyrazole-4-carboxamide] — within 0.2 log units, 5.87
- O=C(Nc1cnc(-n2nccn2)c(Cl)c1)c1cnn(-c2ccncc2F)c1C(F)(F)F [Cpd 6, N-(5-Chloro-6-(2H-1,2,3-triazol-2-yl)pyridin-3-yl)-1-(3-fluoropyridin-4-yl)-5-(trifluoromethyl)-1H-pyrazole-4-carboxamide] — 0.31 log units higher, 6.08
- N#Cc1cc(-n2ncc(C(=O)Nc3cnc(-n4nccn4)c(C#N)c3)c2C(F)(F)F)ccn1 [Cpd 40, N-(5-cyano-6-(2H-1,2,3-triazol-2-yl)pyridin-3-yl)-1-(2-cyanopyridin-4-yl)-5-(trifluoromethyl)-1H-pyrazole-4-carboxamide] — within 0.2 log units, 5.72
- N#Cc1cc(NC(=O)c2cnn(-c3ccc(N)nc3)c2C(F)(F)F)cnc1-n1nccn1 [Cpd 194, 1-(6-aminopyridin-3-yl)-N-(5-cyano-6-(2H-1,2,3-triazol-2-yl)pyridin-3-yl)-5-(trifluoromethyl)-1H-pyrazole-4-carboxamide] — within 0.2 log units, 5.93
- O=C(Nc1cnc(-n2nccn2)c(Cl)c1)c1cnn(-c2ccc(F)cc2C(F)(F)F)c1C(F)(F)F [Cpd 114, N-(5-chloro-6-(2H-1,2,3-triazol-2-yl)pyridin-3-yl)-1-(4-fluoro-2-(trifluoromethyl)phenyl)-5-(trifluoromethyl)-1H-pyrazole-4-carboxamide] — 0.23 log units higher, 6.00
- O=C(Nc1cnc(-n2nccn2)c(Cl)c1)c1cnn(-c2ncccn2)c1C(F)(F)F [Cpd 10, N-(5-Chloro-6-(2H-1,2,3-triazol-2-yl)pyridin-3-yl)-1-(pyrimidin-2-yl)-5-(trifluoromethyl)-1H-pyrazole-4-carboxamide] — 0.41 log units lower, 5.36
- CC(C)c1ccccc1-n1ncc(C(=O)Nc2cnc(-n3nccn3)c(Cl)c2)c1C(F)(F)F [Cpd 76, N-(5-chloro-6-(2H-1,2,3-triazol-2-yl)pyridin-3-yl)-1-(2-isopropylphenyl)-5-(trifluoromethyl)-1H-pyrazole-4-carboxamide] — 0.40 log units higher, 6.17
- Cc1cc(F)ncc1-n1ncc(C(=O)Nc2cnc(-n3nccn3)c(Cl)c2)c1C(F)(F)F [Cpd 87, N-(5-chloro-6-(2H-1,2,3-triazol-2-yl)pyridin-3-yl)-1-(6-fluoro-4-methylpyridin-3-yl)-5-(trifluoromethyl)-1H-pyrazole-4-carboxamide] — 0.37 log units higher, 6.14
- Cc1nccc(-n2ncc(C(=O)Nc3cnc(-n4nccn4)c(C#N)c3)c2C(F)(F)F)c1C#N [Cpd 33, 1-(3-Cyano-2-methylpyridin-4-yl)-N-(5-cyano-6-(2H-1,2,3-triazol-2-yl)pyridin-3-yl)-5-(trifluoromethyl)-1H-pyrazole-4-carboxamide] — 0.52 log units higher, 6.29
- N#Cc1cc(F)ccc1-n1ncc(C(=O)Nc2cnc(-n3nccn3)c(Cl)c2)c1C(F)(F)F [Cpd 136, N-(5-chloro-6-(2H-1,2,3-triazol-2-yl)pyridin-3-yl)-1-(2-cyano-4-fluorophenyl)-5-(trifluoromethyl)-1H-pyrazole-4-carboxamide] — 0.35 log units higher, 6.12
- CNc1ccc(-n2ncc(C(=O)Nc3cnc(-n4nccn4)c(C#N)c3)c2C(F)(F)F)cn1 [Cpd 124, N-(5-cyano-6-(2H-1,2,3-triazol-2-yl)pyridin-3-yl)-1-(6-(methylamino)pyridin-3-yl)-5-(trifluoromethyl)-1H-pyrazole-4-carboxamide] — within 0.2 log units, 5.92
